# Where two headings read alike, the source gives them in different places.
# B1: VV6A9-5: exemplary anti-IL-6R antibody, see U.S. Pat. No. 7,582,298 (antibody, V domains shown)
# VH: EVQLVESGGGLVQPGRSLRLSCAASGFTFDDYALHWVRQAPGKGLEWVSGVSWNGGRIGYADSVKGRFTISRDNAKNSLFLQMNSLRVEDTALYYCAKGRDAFDIWGQGTLVTVSS
# VL: DIQMTQSPSSVSASVGDRVTITCRASQGISSWLAWYQQKPGKAPKLLIYAASSLQSGVPSRFSGSGSGTDFTLTISSLQPEDFATYYCQHAYSFPYTFGQGTKLEIK
# Key:
# [1] = test system: Ramos cells; test: Cytotoxicity (cell viability, CCK8) assay; format: cell-based; conditions: Table 28, 3 days
# Method: (§1) Next, exemplary anti-IL-4R (H4H083P2) and anti-IL-6R (VV6A9-5) antibodies were conjugated to the cytotoxic drug DM1 and their potency in cytotoxicity assays was evaluated. Briefly, HEK293/IL-4R, Ramos or KG-1 cell lines, as well as HEK293 parental cells were seeded in PDL-coated 96-well plates at 1500 to 10,000 cells per well. ADCs or free DM1 (as the methyl disulfide derivative DM1-SMe) were added to the cells at final concentrations ranging from 300 nM to 15 pM and incubated for 3 days. Cells were incubated with CCK8 (Dojindo, Rockville, Md.) for the final 1-3 hours and the absorbance at 450 nm (OD450) was determined on a Flexstation3 (Molecular Devices, Sunnyvale, Calif.). Background OD450 values from digitonin (40 nM) treated cells were subtracted from all wells and viability was expressed as a percentage of the untreated controls. IC50 values were determined from a four-parameter logistic equation over a 10-point response curve (GraphPad Prism).
# [2] = test system: HEK293/IL-4R cells; test: Cytotoxicity (cell viability, CCK8) assay; format: cell-based; conditions: HEK293/hIL4R; Table 28; 3 days
# Method: as §1
# [3] = test system: HEK293 parental cells; test: Cytotoxicity (cell viability, CCK8) assay; format: cell-based; conditions: Table 28, 3 days
# Method: as §1
# [4] = test system: KG-1 cells; test: Cytotoxicity (cell viability, CCK8) assay; format: cell-based; conditions: Table 28, 3 days
# Method: as §1
# [5] = test system: SK-BR-3 cells; test: Cell viability (cell kill) assay; format: cell-based; conditions: Table 16
# [6] = test system: PC3 cells; test: Cell viability (cell kill) assay; format: cell-based
# Method in brief: (§2)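 PC3 and PC3/hPRLR (lipofection-generated, FACS-enriched for PRLR) cells exposed 3 days to anti-PRLR ADCs or free DM1-SMe, 500 nM to 5 pM. Viability by CCK8 OD450, digitonin background subtracted, as % of untreated; IC50 from four-parameter fit of 10-point curves.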
# [7] = test system: T47D/hErbB2 cells; test: Cell viability (cell kill) assay; format: cell-based, human; conditions: T47D/ErbB2; Table 16
# Source text: (§3) PRLR-overexpressing cells, including HEK293, PC3, MCF7 and NCI-N87, were generated to assess the ability of anti-PRLR conjugated antibodies to reduce cell viability. For comparative purposes, PC3 and T47D cells with overexpressed ErbB2 were also generated, as well as an MCF7 cell line over-expressing both hPRLR and hErbB2. Briefly, Lipofectamine® 2000-mediated transfection methodology was utilized to generate HEK293 cells expressing human PRLR (HEK293/hPRLR) or human ErbB2 (HEK293/hErbB2). Lipofectamine LTX with Plus Reagent was used to generate PC3 cells expressing human PRLR (PC3/hPRLR) or human ErbB2 (PC3/hErbB2). Lentiviral-mediated transduction was utilized to generate MCF7 cells expressing human PRLR (MCF7/hPRLR), NCI-N87 cells expressing human PRLR (NCI-N87/hPRLR), T47D cells over-expressing human ErbB2 (T47D/hErbB2), and MCF7 cells expressing both human PRLR and human ErbB2 (MCF7/hPRLR/hErbB2). All lines were selected for at least two weeks in complete growth media plus appropriate selection reagents. Stably expressing populations were enriched for PRLR expression via FACS using the anti PRLR antibody Control I.
# (§4) Next, the ability of anti-PRLR-DM1 antibody-drug conjugates (i.e., anti-PRLR antibodies conjugated to DM1 via a non-cleavable linker [SMCC]) to reduce cell viability was determined using in vitro cell based assays. Cells were seeded in PDL-coated 96 well plates at 1500 to 10000 cells per well in complete growth media and allowed to grow overnight. For cell viability curves, ADCs or free DM1 (as the methyl disulfide derivative DM1-SMe) were added to the cells at final concentrations ranging from 500 nM to 5 pM and incubated for 3 days. The 293, PC3 and T47D cells were incubated with CCK8 (Dojindo, Rockville, Md.) for the final 1-3 hours and the absorbance at 450 nm (OD450) was determined on a Flexstation3 (Molecular Devices, Sunnyvale, Calif.). MCF7 cells were treated with Hoechst 33342 nuclear stain while being fixed with 4% formaldehyde. Images were acquired on the ImageXpress micro XL (Molecular Devices, Sunnyvale, Calif.) and nuclear counts were determined via Columbus image analysis software (Perkin Elmer, Shelton, Conn.). Background OD450 values (PC3, 293, and T47D) or nuclear counts (MCF7) from digitonin (40 nM) treated cells was subtracted from all wells and viability was expressed as a percentage of the untreated controls. IC50 values were determined from a four-parameter logistic equation over a 10-point response curve (GraphPad Prism).
# (§5) The potency of anti-PRLR conjugated antibodies compared with a similarly conjugated antibody to the co-expressed ErbB2 cell surface target was also assessed. Both PRLR and ErbB2 are expressed in a majority of breast cancers, and anti-ErbB2 antibodies conjugated to DM1 have shown clinical efficacy in targeting ErbB2 (+) breast cancer (Hurvitz et al; 2013).
# [8] = test system: NCI-N87/hPRLR cells; test: Cell viability (cell kill) assay; format: cell-based, human; conditions: NCI-N87/PRLR; Table 17
# Source text: as §3, §4, §5
# [9] = test system: PC3/hErbB2 cells; test: Cell viability (cell kill) assay; format: cell-based, human; conditions: PC3/ErbB2; Table 15
# Source text: as §3, §4, §5
# [10] = test system: MCF7/hPRLR/hErbB2 cells; test: Cell viability (cell kill) assay; format: cell-based, human; conditions: MCF/PRLR + ErbB2; Table 17
# Source text: as §3, §4, §5
# [11] = test system: HEK293/hErbB2 cells; test: Cell viability (cell kill) assay; format: cell-based, human; conditions: 293/ErbB2; Table 14
# Source text: as §3, §4, §5
# [12] = test system: T47D cells; test: Cell viability (cell kill) assay; format: cell-based; conditions: T47D; for IC50: read-out: IC50
# Method in brief: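 T47D cells grown overnight, then exposed 3 days to anti-PRLR ADCs (DM1 via non-cleavable SMCC linker, or other maytansinoid toxins) or free DM1-SMe, 500 nM to 5 pM. Viability by CCK8 OD450, digitonin background subtracted, as % of untreated; IC50 from 10-point four-parameter fit. PRL (15 nM) co-incubation tested separately.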
# [13] = test system: NCI-N87 cells; test: Cell viability (cell kill) assay; format: cell-based; conditions: Table 17
# Source text: as §3, §4
# The potency of anti-PRLR conjugated antibodies compared with a similarly conjugated antibody to the co-expressed ErbB2 cell surface target was also assessed. […]
# [14] = test system: MCF7/hPRLR (MCF7/PRLR) cells; test: Cell viability (cell kill) assay, nuclear counts; format: cell-based, human
# Method in brief: (§6)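 Anti-PRLR ADCs or free DM1-SMe were added at 500 nM to 5 pM final to cells seeded overnight and were incubated 3 days. MCF7 lines were fixed with 4% formaldehyde plus Hoechst 33342, and nuclei were counted by imaging, with digitonin […] background subtracted. Viability was expressed as % of untreated cells, and IC50 was obtained from a 4-parameter fit of a 10-point curve.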
# [15] = test system: HEK293 (293) cells; test: Cell viability (cell kill) assay; format: cell-based; conditions: 293
# Method in brief: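 Anti-PRLR–DM1 ADCs (non-cleavable SMCC linker) or free DM1-SMe, 500 nM to 5 pM for 3 days on parental or hPRLR-overexpressing lines. HEK293: CCK8 OD450; MCF7: Hoechst nuclear counts by imaging.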
# [16] = test system: HEK293/hPRLR (293/hPRLR) cells; test: Cell viability (cell kill) assay; format: cell-based, human; conditions: 293/PRLR; for IC50: read-out: IC50
# Source text: as §3, §4
# [17] = test system: PC3/hPRLR cells; test: Cell viability (cell kill) assay; format: cell-based, human; conditions: PC3/PRLR
# Method in brief: as §2
# [18] = test system: MCF7 (MCF7/ATCC) cells; test: Cell viability (cell kill) assay, nuclear counts; format: cell-based; conditions: MCF7
# Method in brief: as §6
# [19] = target: T1, IL-6R on KG-1, HEK293, HEK293/IL-4R and Ramos cells (Homo sapiens, UniProt P08887); test: FACS relative cell surface expression with anti-IL-6R antibody VV6A9-5; format: binding
# T1 construct: KG-1 (IL-4R^+), HEK293/IL-4R and Ramos (IL-6R^+) cells; endogenous in cells; host or cells: Ramos (IL-6R+), KG-1, HEK293, HEK293/IL-4R
# T1 sequence (P08887 20-468): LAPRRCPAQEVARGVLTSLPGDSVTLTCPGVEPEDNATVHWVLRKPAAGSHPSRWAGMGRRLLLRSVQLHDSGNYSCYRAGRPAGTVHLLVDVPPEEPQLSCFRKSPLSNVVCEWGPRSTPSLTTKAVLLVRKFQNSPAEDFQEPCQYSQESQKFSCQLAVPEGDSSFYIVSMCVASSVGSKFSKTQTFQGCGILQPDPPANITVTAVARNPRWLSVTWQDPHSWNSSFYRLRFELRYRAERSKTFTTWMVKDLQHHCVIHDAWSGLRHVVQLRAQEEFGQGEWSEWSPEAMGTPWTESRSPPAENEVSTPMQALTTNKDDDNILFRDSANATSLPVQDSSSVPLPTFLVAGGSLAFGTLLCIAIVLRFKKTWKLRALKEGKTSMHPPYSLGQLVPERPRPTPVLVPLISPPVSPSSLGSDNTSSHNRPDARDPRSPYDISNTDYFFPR
# Method: Cell surface antigen levels on cells that endogenously or recombinantly express IL-4R or IL-6R were first established using FACS. Briefly, approximately 1 million KG-1 (IL-4R^+), HEK293/IL-4R and Ramos (IL-6R^+) cells were incubated with exemplary anti-IL-4R (H4H083P2, see U.S. Pat. No. 7,608,693) and anti-IL-6R (VV6A9-5, see U.S. Pat. No. 7,582,298) antibodies for 30 min on ice. After washing, a PE-conjugated anti-human secondary antibody (10 μg/ml) was added for 30 min followed by a second washing step and subsequent analysis on an Accuri C6 cytometer using FlowJo software (Tree Star, Inc., Ashland, Oreg.). Relative IL-4R and IL-6R cell surface expression levels were calculated as the mean fluorescence intensity (MFI) above isotype control levels.
molecule,measurement,setting,value
COc1cc2cc(c1Cl)N(C)C(=O)C[C@H](OC(=O)[C@H](C)N(C)C(=O)CCS)[C@]1(C)O[C@H]1[C@H](C)[C@@H]1C[C@@](O)(NC(=O)O1)[C@H](OC)/C=C/C=C(\C)C2 [DM1 (Free Drug)],% Kill,[1],100%
same,IC50,[1],0.34 nM
same,% Kill,[2],98%
same,IC50,[2],0.33 nM
same,% Kill,[3],100%
same,IC50,[3],0.27 nM
same,% Kill,[4],89%
same,IC50,[4],1.26 nM
COc1cc2cc(c1Cl)N(C)C(=O)C[C@H](OC(=O)[C@H](C)N(C)C(=O)CCS)[C@]1(C)O[C@H]1[C@H](C)[C@@H]1C[C@@](O)(NC(=O)O1)[C@H](OC)/C=C/C=C(\C)C2 [DM1 (free drug)],% Kill,[5],74%
same,IC50,[5],0.39 nM
same,% Kill,"[6]; Table 11, 3 days",91%
same,IC50,"[6]; Table 11, 3 days",0.47 nM
same,% Kill,[6]; Table 15,88%
same,IC50,[6]; Table 15,0.44 nM
same,% Kill,[7],71%
same,IC50,[7],0.18 nM
same,% Kill,[8],98%
same,IC50,[8],1.45 nM
same,% Kill,[9],85%
same,IC50,[9],0.42 nM
same,% Kill,[10],77%
same,IC50,[10],0.82 nM
same,% Kill,[11],100%
same,IC50,[11],0.26 nM
same,% Kill,"[12]; Table 12, 3 days",86%
same,IC50,"[12]; Table 12, 3 days",0.45 nM
same,% Kill,[12]; Table 16,80%
same,IC50,[12]; Table 16,0.21 nM
same,% Kill,[13],95%
same,IC50,[13],0.84 nM
same,% Kill,"[14]; Table 12, 3 days",88%
same,IC50,"[14]; Table 12, 3 days",1.47 nM
same,% Kill,[14]; Table 17,79%
same,IC50,[14]; Table 17,1.85 nM
same,% Kill,"[15]; Table 11, 3 days",98%
same,IC50,"[15]; Table 11, 3 days",0.27 nM
same,% Kill,[15]; Table 14,95%
same,IC50,[15]; Table 14,0.5 nM
same,% Kill,"[16]; Table 11, 3 days",97%
same,IC50,"[16]; Table 11, 3 days",0.36 nM
same,% Kill,[16]; Table 14,95%
same,IC50,[16]; Table 14,0.82 nM
same,% Kill,"[17]; Table 11, 3 days",80%
same,IC50,"[17]; Table 11, 3 days",0.59 nM
same,% Kill,[17]; Table 15,82%
same,IC50,[17]; Table 15,0.24 nM
same,% Kill,"[18]; Table 12, 3 days",83%
same,IC50,"[18]; Table 12, 3 days",1.17 nM
same,% Kill,[18]; Table 16,78%
same,IC50,[18]; Table 16,0.54 nM
B1,IL-6R Cell Line Expression Level; Fold Over Background,[19]; HEK293,1
same,IL-6R Cell Line Expression Level; Fold Over Background,[19]; HEK293/IL4R,1
same,IL-6R Cell Line Expression Level; Fold Over Background,[19]; KG-1,7
same,IL-6R Cell Line Expression Level; Fold Over Background,[19]; Ramos,1

# Reference: patent US9688764B2, “Methods of treating breast cancer by administering anti-human prolactin receptor (PRLR) antibodies” (REGENERON PHARMACEUTICALS, INC., priority 2013, dated 2017)
